The subject of series [1] is human PBMCs co-cultured with OVCAR8 cells. Nature of the series: Co-culture of OVCAR8 cells and stimulated human PBMCs, 1:10 OVCAR8:PBMC ratio. The format is cell-based. The settings on record: for Immunosuppressive effect (reduction in TNFα/cytokines) compared with controls rPD-L1 and MN_Null: 1:10 OVCAR8:PBMC co-culture, FIG. 10D. As to the method: For this model, PBMCs and cancer cells were both stimulated prior to co-culture to promote expression of PD-1 and PD-L1, respectively.
OVCAR8 cells, generously provided by the Gottesman Lab (National Institutes of Health, Bethesda, MD, USA), and MDA-MB-231 cells (American Type Culture Collection, Rockville, MD, USA) were cultured in Gibco RPMI 1640 media (ThermoFisher Scientific, Cat. No. 11-875-093) supplemented with 10% Gibco fetal bovine serum (ThermoFisher Scientific, Cat. No. 10437028), and 1% penicillin/streptomycin (10,000 U/mL pen, 10 mg/mL strcp) from MilliporeSigma (Burlington, MA, USA, Cat. No. P4333). Cells were cultured at 37° C. and 5% CO2. Passage number was kept below 3 for co-culture assay. Human peripheral blood mononuclear cells were purchased frozen from […] PBMCs were thawed according to manufacturer's instructions one day before co-culture and cultured in the same media and conditions as cancer cell lines.
The next day, cells were stimulated with 100 ng/mL IFNγ and two vials of human PBMCs were thawed. On Day 3, concentrations of PBMCs and OVCAR8 cells (harvested from a control well) were measured using the QuadCount Automated Cell Counter. The concentration of PBMCs required for a 1:10 OVCAR8:PBMC ratio was calculated from the OVCAR8 concentration. PBMCs were plated on a separate 24-well plate (1 mL/well) and stimulated with 5 μg/mL of anti-CD3 and 5 μg/mL of anti-CD28 for 30 minutes before drug treatment. […] After 30 minutes, media was removed from OVCAR8 wells without treatment, and replaced with 1 mL of treated PBMCs. After 24 hours, the supernatants were collected from each well, and centrifuged at 10,000×g for 5 minutes to remove any remaining cells.
Briefly, samples from co-culture experiments with excess OVCAR8 ratios were diluted 1:10 in assay buffer, and samples from co-culture experiments with excess PBMC ratios were diluted 1:5 in assay buffer. Next, 10 μL of the diluted samples were mixed with 10 μL of an IL-2 antibody-oligonucleotide conjugate mixture and added to a 96-well working plate. Samples with excess OVCAR8 ratios were allowed to incubate overnight at 4° C. Samples with excess PBMCs were allowed to incubate for 1 hour at room temperature. Next, 80 μL of qPCR reaction mixture containing master mix and DNA ligase was added to each well. The plate was centrifuged at 2,500×g for 2 minutes. Samples were then added in triplicate (20 μL/well) to a 96-well PCR plate (ThermoFisher Scientific). PCR was run according to manufacturer's instructions using the QuantStudio 7 Pro Real-Time PCR System equipped with a 96-well, 0.2 mL block from ThermoFisher Scientific.
Remaining samples from experiments with excess PBMC ratios were analyzed using TNFα (Cat. No. 430204) ELISA MAX Deluxe Sets (BioLegend, San Diego, CA, USA) according to manufacturer's instructions. Briefly, 96-well Nunc™ MaxiSorp™ ELISA Plates (BioLegend, Cat. No. 423501) were coated with capture antibodies for TNFα and incubated overnight at 4° C. The next day, the plate was washed 4× with 1×PBS+0.05% Tween-20 (PBS-T). To block non-specific binding, 200 μL of assay dilutant buffer was added to each well and the plate was incubated at room temperature for 1 hour on a shaker. The plate was washed as before, and 100 μL of the samples or standards were added to each well in triplicate and incubated at room temperature for 2 hours on a shaker. The plate was washed 4× and 100 μL of detection antibody for TNFα was added to each well, and the plate was incubated at room temperature for 1 hour on a shaker. The plate was washed 4× and 100 μL of Avidin-HRP was added to each well, and the plate was incubated at room temperature for 30 minutes on a shaker.

Series [2] is described as follows: Human serum was diluted 1:4 in Gibco RPMI 1640 media. The settings on record: room temperature (serum incubated at 37° C. for 15 minutes prior to time course); for fragment found: up to 6 hours.
The conditions of series [3]: human serum diluted 1:4 in RPMI, ESI-MS, 0, 6, 24, 48 hours. As to the method: Angiotensin I was spiked in and used for normalization.
Human serum was diluted 1:4 in Gibco RPMI 1640 media (ThermoFisher Scientific, Waltham, MA, USA, Cat. No. 11-875-093) for a total of 1 mL and incubated at 37° C. for 15 minutes prior to time course. Next, 1 μL of the peptide stock was added to warmed serum for a final concentration of […] in the master mix. The rest of the time course was performed at room temperature. For each time point, aliquots of 100 μL were removed from the master mix and added to 200 μL of 3% trifluoroacetic acid. Samples were incubated on ice for 15 minutes before centrifugation at 16,000×g for 2.5 minutes. Supernatants were transferred to a clean tube and prepared for desalting via C18 column by adding 100 μL of sample buffer (20% acetonitrile, 2% trifluoroacetic acid) to supernatants before storage at—20° C. overnight. Samples were then processed through Pierce C18 spin columns (ThermoFisher Scientific, Cat. No. 89870) according to the manufacturer's instructions. […]
For ESI-MS analysis, serum stability samples were run on an Orbitrap Exploris 480 (ThermoFisher Scientific). […] ThermoFisher's Xcalibur 4.0 Data System was used for peptide quantification. […] The samples were batch reprocessed for quantification via peak area. Peptide abundances were normalized based on Angiotensin I abundance and quantified relative to initial abundance.

Another series addresses T1, PD-1/PD-L1 complex (Homo sapiens, UniProt Q15116).
T1 construct: purchased PerkinElmer AL356HV
In words: AlphaScreen (PD-1/PD-L1 AlphaLISA binding kit), PD-1/PD-L1 complex formation. The settings on record: for Residual Activity: AlphaScreen PD-1/PD-L1 complex formation; for Blocking of PD-1/PD-L1 complex formation: AlphaScreen, result in words.

Series [4] addresses T2, biotinylated PD-1 of the PerkinElmer PD-1/PD-L1 (human) AlphaLISA Binding Kit (human, UniProt Q15116 25-167, limits assumed, biotinylated (site not stated)).
T2 construct: Bought kit reagent
In words: AlphaScreen (PerkinElmer PD-1/PD-L1 human AlphaLISA binding kit): peptide titrated against biotinylated PD-1 and His-tagged PD-L1; readout percent activity (PD-1/PD-L1 complex formation). As to the method: (§1) Briefly, peptides were resuspended in assay buffer with 4% dimethyl sulfoxide (DMSO) to make 4× stock solutions of 400 μM. […] Lastly, the 4× mixture of anti-His Acceptor beads and streptavidin Donor beads were prepared in the dark. Peptides were then added in duplicates of 10 μL to a white 96-well ½-AreaPlate (PerkinElmer, Cat. No. 6005560) at 7 different concentrations from 1 nM to 100 μM. […] The plate was incubated in the dark for 90 minutes at room temperature and luminescence was measured using a Tecan Spark multimode plate reader (Männedorf, Switzerland). For data analysis, a control with beads alone was subtracted from each well for background correction. Data analysis was conducted using GraphPad Prism version 9 (La Jolla, CA, USA).

Series [5] concerns the target T2, biotinylated PD-1 of the PerkinElmer …. In words: AlphaScreen (PerkinElmer PD-1/PD-L1 human AlphaLISA binding kit): peptide titrated against biotinylated PD-1 and His-tagged PD-L1; readout percent PD-1/PD-L1 binding. As to the method: as §1

Entries after “also recorded” stand apart in the source; their conditions may differ. Where a SMILES comes first, the peptide text is derived from it. Bridges are numbered along the chain shown (N, C = ends). Where no end group is shown, it is not given here.

T1 sequence (Q15116 25-170 limits assumed, one chain of several): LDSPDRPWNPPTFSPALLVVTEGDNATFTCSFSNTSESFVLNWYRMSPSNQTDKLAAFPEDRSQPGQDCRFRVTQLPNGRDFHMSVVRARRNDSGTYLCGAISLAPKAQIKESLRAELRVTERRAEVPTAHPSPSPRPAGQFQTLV
T2 sequence (Q15116 25-167 limits assumed): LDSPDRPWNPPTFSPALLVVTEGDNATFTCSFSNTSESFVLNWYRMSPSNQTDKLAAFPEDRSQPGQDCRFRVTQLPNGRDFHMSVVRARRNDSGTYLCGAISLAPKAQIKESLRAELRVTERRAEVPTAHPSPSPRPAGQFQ

In the case of Pembrolizumab [reference compound], the TNFα levels result in series [1] (1:10 OVCAR8:PBMC, 24 hours, ELISA, vs untreated co-culture control, FIG. 10C) was “did not have this effect”. The IL-2 levels result in series [1] (1:10 OVCAR8:PBMC, 24 hours, vs untreated co-culture control, FIG. 10B) is reported as “did not have this effect”. Consider YRCMISYGGADYKRITV, for which the fragment found entry in series [2] was “cysteinylated peptide, major, 15 minutes; also recorded: oxidized MN 1.1, minor, time 0”. For `CC[C@H](C)[C@@H]1NC(=O)[C@H](CCSC)NC(=O)[C@H](C)NC(=O)[C@H](CCCNC(=N)N)NC(=O)[C@H](Cc2ccc(O)cc2)NC(=O)[C@@H](N)CSSC[C@@H](C(=O)O)NC(=O)[C@H](C(C)C)NC(=O)[C@H]([C@@H](C)O)NC(=O)[C@H]([C@@H](C)CC)NC(=O)[C@H](CCCNC(=N)N)NC(=O)[C@H](CCCCN)NC(=O)[C@H](Cc2ccc(O)cc2)NC(=O)[C@H](CC(=O)O)NC(=O)[C@H](C)NC(=O)CNC(=O)CNC(=O)[C@H](Cc2ccc(O)cc2)NC(=O)[C@H](CO)NC1=O` [SEQ ID NO. 4] (H-CYRAMISYGGADYKRITVC-OH; disulfide 1-19), the Degradation in serum result in series [3] is given as “present at very low levels after 48 hours”. On PD-1/PD-L1 complex, the half-inhibitory concentration (IC50) was under 10 µM.

On to “CRAXISYGGADYKXIC (norleucine at position 4; SITE 4 Nle; DISULFID 1..16 Intra chain disulphide formation; SITE 14 N-methyl arginine) [SEQ ID NO. 6]”, for which, in the series with PD-1/PD-L1 complex, the “Residual Activity” value came to 82.74%. Also, the “Blocking of PD-1/PD-L1 complex formation” value in the series with PD-1/PD-L1 complex is listed as “lost activity”; in the series with PD-1/PD-L1 complex (listed as MN1.5), “abolished the ability of MN1.1 to block PD-1/PD-L1 complex formation”.

For the molecule “YRCMISNGGADYKRITV (Ac-YRCMISNGGADYKRITV-NH2) [SEQ ID NO. 3]”, the “Blocking of PD-1/PD-L1 complex formation” value in the series with PD-1/PD-L1 complex is given as “mutation of Y7 is tolerated”.

Take “CRAMISYKGADYKRIC (disulfide 1-16) [SEQ ID NO. 7]”: the “Residual Activity” value with PD-1/PD-L1 complex amounted to 45.77%. “CRALIAYKGADYKRIC (disulfide 1-16) [SEQ ID NO. 8]”: the “Residual Activity” value with PD-1/PD-L1 complex is 62.87%.

As to YRCMISYGGADEKRITV [SEQ ID NO. 14], the “Immunosuppressive effect (reduction in TNFα/cytokines) compared with controls rPD-L1 and MN_Null” value in series [1] (listed as MN-Null) is listed as “did not show a significant reduction”; in series [1] (listed as MN_Null), “less immunosuppressive activity as compared to MN1.4; also recorded: little immunosuppressive effect”. For the molecule NH3-CRAMISYGGADYK-(N-Me-Arg)-IC—COOH, the fragment found entry in series [2] is recorded as “oxidized MN1.4”. Moreover, the not cleaved result in series [2] (up to 48 hours) is given as “not significantly degraded at 48 hours”.

Consider CRALIAYKGADYKRIC (disulfide 1-16) [MN4.2], for which the “IC50 (read off the curve)” value in series [4] is about 10 µM.

B1: MN 2.1 (peptide)
peptide: Ac-YRCMISNGGADYKRITV-NH2
modifications: not fully specified
notes: the text speaks of Y7Q for the computation
B1 returned an IC50 in series [5] of 17.4 µM. Turning to CRAMISYKGADYKRIC (disulfide 1-16) [MN 3.2], the “IC50 (read off the curve)” value in series [4] is about 10 µM.

These data come from patent US20240327493A1 (GEORGE MASON UNIVERSITY, priority 2023, published 2024).
